“Also recorded” adds a separate entry of the source.
What was measured:
U118MG = assay: Cell viability, glioblastoma U118MG; format: cell-based; settings: Homo sapiens, U-118-MG; glioblastoma cell line
Protocol: The anti-cancer efficacy of exemplary compounds of the application were assessed in vitro against different cancer cell lines. […] 1×10^4 cells/well were plated in 96-well assay plates in culture medium. […] In some instances, FBS was removed for periods ranging from 16-24 hours, and re-introduced with test compound addition. After 24 hrs, test compounds and vehicle controls were added to appropriate wells such that the final volume was 100 μl in each well. The cells were cultured for the desired test exposure period (72 hours) at 37° C. and 5% CO2. The assay plates were removed from […] incubator and 20 μl/well of CellTiter-Blue® Reagent was added. The plates were incubated using standard cell culture conditions for 1-4 hours. Afterwards, the plates were shaken for 10 seconds and florescence was recorded at 560/590 nm using a Cytation 3 spectrophotometer. IC50 values were determined using non-linear regression analysis with GraphPad Prism 6.0 (GraphPad Software Inc.).

OCI-AML3 = assay: Cell viability, AML OCI-AML3; format: cell-based; settings: Homo sapiens, OCI-AML-3, Table 4
Protocol: (§1) The anti-cancer efficacy of exemplary compounds of the application were assessed in vitro against different cancer cell lines. Cell viability was examined following treatment at various concentrations of inhibitor (0.097656-50 μM) using a CellTiter-Blue® cell viability assay. 1×10^4 cells/well were plated in 96-well assay plates in culture medium. All cells were grown in DMEM, IMDM and RPMI-1640 supplemented with 10% fetal bovine serum (FBS). In some instances, FBS was removed for periods ranging from 16-24 hours, and re-introduced with test compound addition. After 24 hrs, test compounds and vehicle controls were added to appropriate wells such that the final volume was 100 μl in each well. The cells were cultured for the desired test exposure period (72 hours) at 37° C. and 5% CO2. The assay plates were removed from […] incubator and 20 μl/well of CellTiter-Blue® Reagent was added. The plates were incubated using standard cell culture conditions for 1-4 hours. Afterwards, the plates were shaken for 10 seconds and florescence was recorded at 560/590 nm using a Cytation 3 spectrophotometer. IC50 values were determined using non-linear regression analysis with GraphPad Prism 6.0 (GraphPad Software Inc.). […]

D425 = assay: Cell viability, medulloblastoma D425; format: cell-based; settings: medulloblastoma cell line
Protocol: as §1

UBA5 [1] = molecular target: T1, UBA5 (Homo sapiens, UniProt Q9GZZ9); assay: 19F NMR study of covalent modification of UBA5; format: binding; settings: 100 μM compound, 100 μM UBA5, 2 hours at 37° C.
T1 construct: Constructs of full length human UBA5 (1-404) were cloned into a pET28b(+) vector; His-SUMO (N, cleaved yes); made in house; host or cells: E. coli BL21 (DE3) RILP
Protocol: Spectra were normalized and referenced according to the fluorine peak of 5-fluoro-Trp.
To assess potential reactivity of I-1 against Cys containing proteins, a series of ^19F NMR studies were conducted with BSA, lysozyme, STAT3, and STATS. […] All samples were prepared in 100 mM HEPES pH 7.4, and 100 μM 5-fluoro-Trp, with a final concentration of 10% D20 and 10% DMSO. The samples were incubated for 2 hours at 37° C. prior to data collection. All spectra were normalized and referenced according to the fluorine peak of 5-fluoro-Trp.
To evaluate covalent modification of UBA5 by I-1, ^19F NMR studies were conducted in accordance with the procedure described in Example 80.

D458 = assay: Cell viability, medulloblastoma D458; format: cell-based; settings: medulloblastoma cell line
Protocol: as §1

hERG channel = hERG channel (Homo sapiens, UniProt Q12809); assay: cell-based
UBA5 [2] = molecular target: T1, UBA5; assay: In vitro transthiolation assay (UFM1-UFC1 conjugate formation); format: biochemical; settings: 50 nM UBA5, 3.5 hours pre-incubation, 0 to 1 μM I-1
Protocol: UBA5 and test compounds were pre-incubated for a period of 8 hours at 37° C. prior to addition of other assay components. After this period, UFM1, UFC1 and ATP were introduced to initiate the reactions. Final concentrations in the reactions were 250 nM UBA5, 10 μM UFM1, 10 μM UFC1 and 100 μM ATP for total assay volumes of 20 μL, in buffer consisting of 50 mM 4-(2-hydroxyethyl)-1-piperazineethanesulfonic acid (HEPES),), 0.5 mM TCEP, 5 mM MgCl2, at pH 7.4. A final concentration of 10% (v/v) DMSO was present in all reactions. The reactions were allowed to proceed for 1 hour before stopping with 4× Laemmli buffer (Bio-Rad 1610747). Samples were then run on 4-20% non-reducing SDS-PAGE stain-free gels to separate protein conjugates. Gels were subsequently imaged using Stain-free imaging technology (Bio-Rad). Image Lab software was used to quantify the intensity of the UFM1-UFC1 conjugate bands to controls with no inhibitor present and reported as % inhibition values.
I-1 was evaluated as well using differing transthiolation assay conditions, with a reduction in UBA5 concentration to 50 nM and a pre-incubation period of 3.5 hours at 37° C. of UBA5 with I-1. This was followed by a 30 minute reaction time after UFM1, UFC1 and ATP addition. A final concentration of 5% (v/v) DMSO was used.

in vitro = settings: male, mouse
Protocol: The reaction mixture was constituted with 100 mM phosphate buffer, ultra-pure H2O, 5 mM MgCl2 solution, 10 mM NADPH solution and 1 mg/mL S9 fraction. This mixture was then pre-warmed at 37° C. for 5 minutes. […] Aliquots of 50 μL were taken from the reaction solution at 0, 15, 30, 45 and 60 minutes. The aliquoted reaction solutions were stopped by the addition of a mixture of cold methanol and IS (100 nM alprazolam, 200 nM imipramine, 200 nM labetalol and 2 μM ketoprofen). The samples were then centrifuged at 3220 g for 40 minutes. Afterwards, aliquots of 90 μL of the supernatant for each sample was mixed with 90 μL of ultra-pure water and subjected to liquid chromatography tandem mass spectrometry (LC-MS/MS) analysis.
Injection volume was 10 μL.

T1 sequence (Q9GZZ9 whole entry): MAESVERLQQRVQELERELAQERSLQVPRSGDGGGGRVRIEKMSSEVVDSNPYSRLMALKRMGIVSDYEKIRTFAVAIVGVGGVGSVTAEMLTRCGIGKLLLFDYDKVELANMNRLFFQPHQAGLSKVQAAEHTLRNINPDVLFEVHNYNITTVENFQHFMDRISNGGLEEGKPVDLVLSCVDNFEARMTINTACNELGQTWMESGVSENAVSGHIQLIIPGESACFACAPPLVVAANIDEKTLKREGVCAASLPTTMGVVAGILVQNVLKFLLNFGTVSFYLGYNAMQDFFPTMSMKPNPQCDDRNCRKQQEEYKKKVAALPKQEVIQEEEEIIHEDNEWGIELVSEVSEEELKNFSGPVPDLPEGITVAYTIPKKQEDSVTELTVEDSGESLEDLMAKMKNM
Chain of hERG channel (Q12809 whole entry): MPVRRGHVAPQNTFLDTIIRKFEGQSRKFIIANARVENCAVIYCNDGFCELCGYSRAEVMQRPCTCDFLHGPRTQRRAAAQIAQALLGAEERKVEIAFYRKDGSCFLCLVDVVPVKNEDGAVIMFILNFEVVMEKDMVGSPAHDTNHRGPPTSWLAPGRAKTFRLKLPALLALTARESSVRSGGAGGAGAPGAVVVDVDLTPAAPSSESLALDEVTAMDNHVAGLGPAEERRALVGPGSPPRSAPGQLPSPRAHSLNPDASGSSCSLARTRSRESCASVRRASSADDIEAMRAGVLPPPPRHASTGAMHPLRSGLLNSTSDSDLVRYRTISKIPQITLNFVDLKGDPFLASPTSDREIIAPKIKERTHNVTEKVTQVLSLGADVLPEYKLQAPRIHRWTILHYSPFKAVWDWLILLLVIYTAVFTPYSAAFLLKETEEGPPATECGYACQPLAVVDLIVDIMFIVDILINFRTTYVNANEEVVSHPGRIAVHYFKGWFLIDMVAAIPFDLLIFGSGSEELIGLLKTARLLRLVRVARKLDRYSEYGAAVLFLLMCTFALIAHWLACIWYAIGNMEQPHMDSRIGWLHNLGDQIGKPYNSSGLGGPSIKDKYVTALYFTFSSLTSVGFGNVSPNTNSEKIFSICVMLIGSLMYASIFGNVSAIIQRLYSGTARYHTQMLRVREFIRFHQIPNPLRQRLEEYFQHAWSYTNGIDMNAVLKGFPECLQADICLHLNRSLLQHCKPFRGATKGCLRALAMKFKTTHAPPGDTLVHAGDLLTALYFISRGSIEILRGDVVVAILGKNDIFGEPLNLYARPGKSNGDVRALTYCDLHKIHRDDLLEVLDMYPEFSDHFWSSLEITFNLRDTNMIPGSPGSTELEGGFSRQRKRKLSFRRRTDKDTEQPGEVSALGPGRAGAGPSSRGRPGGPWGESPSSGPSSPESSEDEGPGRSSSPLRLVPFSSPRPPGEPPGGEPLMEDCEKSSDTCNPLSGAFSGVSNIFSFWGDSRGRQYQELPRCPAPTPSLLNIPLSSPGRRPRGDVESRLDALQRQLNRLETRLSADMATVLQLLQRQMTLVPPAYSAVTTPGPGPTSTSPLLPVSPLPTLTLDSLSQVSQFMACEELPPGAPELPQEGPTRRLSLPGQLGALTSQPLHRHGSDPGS

IC50 (U118MG): 10.3 µM
IC50 (OCI-AML3): 5.6 µM
IC50 (D425): 0.8 µM
IC50 (D458): 2.2 µM
half-life at 2 μM (in vitro; s9): 232 h
microsomal CLint at 2 μM (in vitro; s9): 0.05 µL/min/mg
Remaining Percentage 0 min (in vitro; s9, 0 h, 2 μM): 100.00%
Structure (SMILES): O=S(=O)(c1c(F)c(F)c(F)c(F)c1F)N(Cc1ccc(F)cc1)C1CC1 [Compound I-1, N-cyclopropyl-2,3,4,5,6-pentafluoro-N-(4-fluorobenzyl)benzenesulfonamide]
covalent modification of UBA5 (free fluoride detection) (UBA5 [1]): Fluoride was released; also recorded: covalently modifies UBA5
IC50 (hERG channel): 17.3 µM
UFM1-UFC1 conjugate formation (UBA5 [2]): no conjugate formation at sub-micromolar concentrations

Source: patent US20200277268A1, “PENTAFLUOROPHENYL SULFONAMIDE COMPOUNDS, COMPOSITIONS AND USES THEREOF” (DALRIADA THERAPEUTICS INC., priority 2017, published 2020)
